Results on 2 compounds are retold here after US10017580B2, “Humanized anti-Tn-MUC1 antibodies and their conjugates” (ADC THERAPEUTICS S.A., priority 2014, dated 2018).

The test system of data set [1] is K562 human chronic myeloid leukaemia cells. The data set is described as follows: K562 assay (MTT cytotoxicity of released compounds). The data set is classed as cell-based. To be noted: drug incubation 1 hour or 96 hours (not specified which). Here is the method: K562 human chronic myeloid leukaemia cells were maintained in RPM1 1640 medium supplemented with 10% fetal calf serum and 2 mM glutamine at 37° C. in a humidified atmosphere containing 5% CO2 and were incubated with a specified dose of drug for 1 hour or 96 hours at 37° C. in the dark. The incubation was terminated by centrifugation (5 min, 300 g) and the cells were washed once with drug-free medium. Following the appropriate drug treatment, the cells were transferred to 96-well microtiter plates (10^4 cells per well, 8 wells per sample). Plates were then kept in the dark at 37° C. in a humidified atmosphere containing 5% CO2. The assay is based on the ability of viable cells to reduce a yellow soluble tetrazolium salt, 3-(4,5-dimethylthiazol-2-yl)-2,5-diphenyl-2H-tetrazolium bromide (MTT, Aldrich-Sigma), to an insoluble purple formazan precipitate. Following incubation of the plates for 4 days (to allow control cells to increase in number by approximately 10 fold), 20 μL of MTT solution (5 mg/mL in phosphate-buffered saline) was added to each well and the plates further incubated for 5 h. The plates were then centrifuged for 5 min at 300 g and the bulk of the medium pipetted from the cell pellet leaving 10-20 μL per well. […] The optical density was then read at a wavelength of 550 nm on a Titertek Multiscan ELISA plate reader, and a dose-response curve was constructed. […]

The target of another data set is Tn-MUC1 (16TR-MUC1-Tn). The data set is described as follows: Tn-MUC1 binding ELISA (protocol 4). Also on record: species or system human. Particulars: ELISA on 16TR-MUC1-Tn coated plate.
Tn-MUC1 (16TR-MUC1-Tn), sequence (P15941 141-460 limits assumed): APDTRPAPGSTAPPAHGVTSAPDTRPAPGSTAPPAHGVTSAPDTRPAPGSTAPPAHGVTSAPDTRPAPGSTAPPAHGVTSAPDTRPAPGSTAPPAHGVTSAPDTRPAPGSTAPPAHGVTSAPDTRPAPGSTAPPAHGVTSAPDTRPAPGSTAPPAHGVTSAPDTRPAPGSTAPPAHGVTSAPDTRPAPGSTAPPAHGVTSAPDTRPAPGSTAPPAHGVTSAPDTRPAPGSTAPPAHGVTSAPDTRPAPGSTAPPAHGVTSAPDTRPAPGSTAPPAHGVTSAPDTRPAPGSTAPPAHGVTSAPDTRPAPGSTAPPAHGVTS
Data set [2] relates to ZR-75-1 cell line, which expresses Tn-MUC1. The data set is described as follows: ZR-75-1 cell binding assay by flow cytometry (protocol 6). Particulars: flow cytometry, live cells. As for the experimental part: Protocol 6: ZR-75-1 Cell Binding Assay by Flow Cytometry Materials • Wash solution: PBS 0.1% (w/v) sodium azide • Binding buffer: PBS, 10% normal goat serum, 0.1% (w/v) sodium azide) • 96 well U-well microplate Protocol
Exponentially growing cells are suspended by incubation with cell dissociation buffer enzyme-free, Hanks-based (Gibco 13150-016) following the manufacturer's instructions. A cell count/viability is done on a dilution of 10 ul cells+Trypan Blue, 10 ul, with a haemocytomer. The suspension is centrifuged and the cell pellet re-suspended in binding buffer at 3×10^6 per ml. If significant levels of aggregates are present in the cell count, the suspension is filtered to remove aggregates. The cell suspension is dispensed (50 ul/well) in 96 well U-bottom plates and cooled on ice for 10 minutes. Primary antibody (50 ul/well) diluted in binding buffer (typically 1 ug per ml or less) is added to each well and incubated at 4° C. for 1 hour. […] Cells are then re-suspended in PBS if reading immediately or fixed in 100 ul of paraformaldehyde (2% (w/v) in PBS) and analysed with by flow cytometer (Accuri C6), gating on live cells which have a lower Fixable Viability Dye MFI compared to dead cells.
IgG binding potency to Tn-MUC1 was measured as per protocol 4 and binding to the ZR-75-1 cell line, which expresses Tn-MUC1, was measured as per protocol 6.
For orientation: Flow cytometry measures light scatter and fluorescence of single cells or particles in a stream.

Data set [3] can be described thus: Thermal denaturation assay (protocol 5). In kind it is physicochemical. To be noted: 50% inactivation temperature, 10 minutes heating, read by antigen-binding ELISA. On the technique in general: An ELISA detects its analyte on a solid surface through an enzyme-linked reagent.

For `COc1cc2c(cc1OCCCOc1cc3c(cc1OC)C(=O)N1C=C(C)C[C@H]1C=N3)N=C[C@@H]1CC(C)=CN1C2=O` [Compound RelE], the IC50 in data set [1] amounted to 0.425 nM.
Consider “Mouse 5E5: anti-Tn MUC 1 antibody comprising a VH domain according to SEQ ID NO. 1 and a VL domain according to SEQ ID NO. 30 [reference compound]”, for which, at Tn-MUC1 (16TR-MUC1-Tn), the “Tn-MUC1 binding EC50” value was found to be 0.0311 µg/mL. Besides, the “ZR-75-1 cell binding EC50” value in data set [2] was 0.02834 µg/mL. Further, the Tm in data set [3] turned out to be 69.97 °C.

Broadly, the IC50 is the concentration at which inhibition is half-maximal. A word on the Tm: it is the temperature at the midpoint of the melting transition.
